Measured values from patent publication US7435557B2 (priority 2002, dated 2008).

Key:
[1] = system: formate dehydrogenase; test: Specificity control: substrate GTP replaced with formic acid; format: biochemical; conditions: formate instead of GTP; FIG. 2
Protocol: (§1) The assay is performed in a suitable buffer e.g. Tris/HCl, pH 7.8 including 1 mM Mg.Cl2, 1 mM DTT, 0.5 mM NAD, 2 units/ml formate dehydrogenase and 2.5 mM GTP Li salt. After the addition of the GTP cyclohydrolase comprising cell free extracts of step A), the reaction was monitored by measuring the absorption at 340 nm.
To distinguish between the inhibition of GTP cyclohydrolase and formate dehydrogenase in the above-mentioned assay, the subtrate GTP is replaced with formic acid.

[2] = system: Pyricularia oryzae; format: cell-based; conditions: 125 ppm compound solution, 50 μl + 50 μl spore suspension, 18° C., 7 days, 405 nm
[3] = system: Septoria tritici; format: cell-based; conditions: 18° C., 7 days; 405 nm
[4] = system: GTP cyclohydrolase II; test: GTP cyclohydrolase activity assay coupled to formate dehydrogenase (NADH formation, absorption at 340 nm); format: biochemical, Ashbya gossypii; conditions: cell free extract, 2.5 mM GTP, 0.5 mM NAD, 2 units/ml formate dehydrogenase; FIG. 1
Protocol: Ashbya gossypii cells may be obtained after 2 days from a culture in 3% (w/v) malt extract +0.3% (w/v) difco-soyton, pH 5.6 at 28° C. A cell-free extract can be obtained by mechanical breakage of the cells with a kitchen blender in 50 mM imidazole buffer pH 7 containing 1 mM EDTA-Na salt, 5 mM MgSO4, 10 mM KCl, 5 mM dithiothreitol and 30% (v/v) glycerol and separation of unbroken cells and debris by centrifugation.
as §1
After dissolving the respective candidate compounds in a suitable solvent e.g. DMSO, an aliquot of the afore made solution is added to the reaction mixture. The enzyme activity of this sample is compared with the activity of a control comprising the pure solvent instead of the candidate compound. The resulting relative activity was calculated as percent inhibition in relation to the sample without the candidate compound.
In FIG. 1, the GTP dependant formation of NADH in the reaction mixture and inhibition by 3-Butyl-10-(3-chlorophenyl)-10H-pyrimido[4,5-b]quinoline-2,4-dione is shown.

[5] = system: Phytophthora infestans; format: cell-based; conditions: 125 ppm compound solution, 50 μl + 50 μl spore suspension, 18° C., 7 days, 405 nm

**Q.** `CCCCn1c(=O)nc2n(-c3cccc(Cl)c3)c3ccccc3cc-2c1=O` [3-butyl-10-(3-chlorophenyl)-10H-pyrimido[4,5-b]quinoline-2,4-dione] was tested. Which “inhibition of formate dehydrogenase alone” value [1] did it give?
**A.** The value was “No inhibition”.

**Q.** What about the “% growth compared with the 0 ppm control” value [2] of the same compound?
**A.** The value was 47.6%.

**Q.** What about the “% growth compared with the 0 ppm control” value [3] of the same compound?
**A.** Its value is 0%.

**Q.** What about the “inhibition of GTP dependent formation of NADH” value [4] of the same compound?
**A.** Its value is “inhibition”.

**Q.** And the “% growth compared with the 0 ppm control” value [5]?
**A.** Its value is 39.9%.
